# pEC50: −log10 of the molar value. *1 amine or outer side, *2 acyl side, *3 side chain or, on linkers, in order; H or OH if unused. Where a SMILES comes first, the peptide text is derived from it. Side-chain parts run from the residue outwards. [ ]: non-standard residue; d: D form. The star is where a group is joined. PEG24 = NCCOCCOCCOCCOCCOCCOCCOCCOCCOCCOCCOCCOCCOCCOCCOCCOCCOCCOCCOCCOCCOCCOCCOCCOCCC(=O)O; Bip(2'-Et-4'-O(CH2)4NH2) = CCc1cc(OCCCCN[*:3])ccc1-c1ccc(C[C@H](N[*:1])C(=O)[*:2])cc1; Bip(2'-Et,4'-O(CH2)4N3) = CCc1cc(OCCCCN=[N+]=[N-])ccc1-c1ccc(C[C@H](N)C(=O)O)cc1; Bip(2'-Et,4'-O(CH2)4NH2) = CCc1cc(OCCCCN)ccc1-c1ccc(C[C@H](N)C(=O)O)cc1; X6 = O=C(NCCOCCOCCOCCOC(=O)*)OC[C@@H]1[C@@H]2CCc3[nH]nnc3CC[C@@H]21; Malonyl(2,2-Me2,histaminyl) = CC(C)(C(=O)NCCc1cnc[nH]1)C(=O)*; Nva(5-(3,5-Me2Ph)) = Cc1cc(C)cc(CCC[C@H](N)C(=O)O)c1; Ala(1H-tetrazol-5-yl) = N[C@@H](Cc1nnn[nH]1)C(=O)O; αMePhe(2-F) = C[C@](N)(Cc1ccccc1F)C(=O)O; DBCO = C1#Cc2ccccc2N(*)Cc2ccccc21; Suc = O=C(CCC(=O)[*:2])[*:1]; Aib = CC(C)(N)C(=O)O
# Columns and labels:
# HEK293/CRE-Luc cells = assay: cAMP responsive luciferase reporter assay, HEK293/CRE-Luc cells (no hGLP1R expression); format: cell-based, human
# Text: (§1) To test the activity of GLP1R agonist payloads, GLP1R agonist linker-payloads (LPs), and anti-GLP1R antibody tethered drug conjugates (ATDCs) of the disclosure, a cell-based cAMP responsive luciferase reporter assay was developed. To generate the assay cell line, the firefly luciferase gene was placed under the control of a cAMP response element (CRE) located upstream of a minimal promoter and transfected into HEK293 cells and referred to herein as HEK293/CRE-Luc cells.
# (§2) Three-fold serial dilutions of free payloads or LPs were prepared in 100% DMSO, transferred to fresh assay media, and added to the cells at a final constant DMSO concentration of 0.2%. The last well in the plate served as a blank control containing only the assay media and 0.2% DMSO (untreated well) and was plotted as a continuation of the 3-fold serial dilution. Four to six hours later, luciferase activity was determined after the addition of One-Glo™ reagent (Promega, Cat #E6130) to each well. Relative light units (RLUs) were measured on an Envision luminometer (PerkinElmer) and EC50 values were determined using a four-parameter logistic equation over a 12-point dose response curve (GraphPad Prism). The signal to noise (S/N) was determined by taking the ratio of the highest RLU on the dose response curve to the RLU in the untreated wells.
# human GLP1R = human GLP1R (Homo sapiens (Human), UniProt P43220); assay: cAMP responsive luciferase reporter assay, HEK293/CRE-Luc/hGLP1R cells; format: cell-based
# Text: as §1, §2
# GLP1R agonist linker payloads were conjugated to anti-hGLP1R antibodies via N-terminal heavy or light chain Q tags. Several resulting anti-GLP1R antibody tethered drug conjugates (ATDCs) were tested for activity in the HEK293/CRE-Luc/hGLP1R reporter assay as described above for the free GLP1R payload and linker-payload agonists.
# [1] = Plasma stability of payloads and linker-payloads, human plasma; format: in vitro ADME; conditions: for half-life at 2 µM: human, pooled plasma, pH 7.4, payload properties table, species not given, read-out: Plasma stability t½ (converted)
# Protocol: The plasma stability of payloads and linker payloads of the disclosure were measured. For the assay, pooled frozen plasma (human, mouse or monkey) was thawed in cold water or a 37° C. water bath prior to experiment. Plasma was centrifuged at 4000 rpm for 5 min if any clots were observed, they were subsequently removed. If required, the pH was adjusted to 7.4±0.1. For the preparation of compounds and positive controls, a 1 mM intermediate solution was prepared by diluting 10 μL of their stock solution with 90 μL DMSO; a 1 mM intermediate solution of the positive control (Propantheline) was prepared by diluting 10 μL of its stock solution with 90 μL ultrapure water. […] 98 μL of plasma was spiked with 2 μL of dosing solution (100 μM) to achieve the final concentration of 2 μM in duplicate. Samples were then incubated at 37° C. in a water bath. […] At each time point, 400 μL of stop solution (200 ng/mL tolbutamide plus 200 ng/mL labetalol in 50% ACN/MeOH) was added to precipitate protein and mixed thoroughly. Sample plates were then centrifuged at 4,000 rpm for 10 min. An aliquot of supernatant (50 μL) was transferred from each well and mixed with 100 μL ultra-pure water. The samples were then shaken at 800 rpm for approximately 10 min before submitting for LC-MS/MS analysis.
# [2] = relative to P8 of the same experiment
# [3] = human plasma, tested for 7 days (D)
# [4] = human plasma, tested for 3 days (C)
# [5] = human plasma, tested for 1 day (A)
# Sequence of human GLP1R (P43220 24-463): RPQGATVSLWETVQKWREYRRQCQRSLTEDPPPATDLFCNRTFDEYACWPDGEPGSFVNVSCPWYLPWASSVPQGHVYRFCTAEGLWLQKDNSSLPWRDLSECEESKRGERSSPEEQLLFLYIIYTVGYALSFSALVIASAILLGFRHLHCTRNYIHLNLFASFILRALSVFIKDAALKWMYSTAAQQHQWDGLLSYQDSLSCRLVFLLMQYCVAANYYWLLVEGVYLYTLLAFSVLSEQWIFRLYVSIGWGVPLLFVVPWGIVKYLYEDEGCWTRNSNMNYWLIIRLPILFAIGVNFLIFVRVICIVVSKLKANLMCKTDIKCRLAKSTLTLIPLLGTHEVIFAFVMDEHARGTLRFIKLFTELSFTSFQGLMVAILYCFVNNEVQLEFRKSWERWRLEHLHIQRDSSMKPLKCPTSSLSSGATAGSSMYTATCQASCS
smiles,measurement,setting,value
"CC[C@H](C)[C@H](NC(=O)[C@H](Cc1ccccc1)NC(=O)[C@H](CCC(=O)O)NC(=O)[C@H](CCCCN)NC(=O)[C@H](C)NC(=O)[C@H](C)NC(=O)[C@H](CCC(N)=O)NC(=O)CNC(=O)[C@H](CCC(=O)O)NC(=O)[C@H](CC(C)C)NC(=O)[C@H](Cc1ccc(O)cc1)NC(=O)[C@H](CO)NC(=O)[C@H](CO)NC(=O)[C@@H](NC(=O)[C@H](CC(=O)O)NC(=O)[C@H](CO)NC(=O)[C@@H](NC(=O)[C@H](Cc1ccccc1)NC(=O)[C@@H](NC(=O)CNC(=O)[C@H](CCC(=O)O)NC(=O)[C@H](C)NC(=O)[C@@H](N)Cc1c[nH]cn1)[C@@H](C)O)[C@@H](C)O)C(C)C)C(=O)N[C@@H](C)C(=O)N[C@@H](Cc1c[nH]c2ccccc12)C(=O)N[C@@H](CC(C)C)C(=O)N[C@H](C(=O)N[C@@H](CCCCN)C(=O)NCC(=O)N[C@@H](CCCNC(=N)N)C(N)=O)C(C)C [GLP1, Glucagon-like peptide 1, reference compound]",HEK293/CRE-LUC S/N,HEK293/CRE-Luc cells,1.3
same,HEK293/CRE-Luc S/N,"HEK293/CRE-Luc cells; ATDCs, Table 12",1.4
"CCc1cc(OCCCCNC(=O)CCOCCOCCOCCOCCOCCOCCOCCOCCOCCOCCOCCOCCOCCOCCOCCOCCOCCOCCOCCOCCOCCOCCOCCOCCNC(=O)CCC(=O)N2Cc3ccccc3C#Cc3ccccc32)ccc1-c1ccc(C[C@H](NC(=O)[C@H](CC(=O)O)NC(=O)[C@H](CO)NC(=O)[C@@H](NC(=O)[C@](C)(Cc2ccccc2F)NC(=O)[C@@H](NC(=O)CNC(=O)[C@H](Cc2nn[nH]n2)NC(=O)C(C)(C)C(=O)NCCc2cnc[nH]2)[C@@H](C)O)[C@@H](C)O)C(=O)N[C@@H](CCCc2cc(C)cc(C)c2)C(N)=O)cc1 [LP4, DIBAC-suc-PEG24-P9] ({Malonyl(2,2-Me2,histaminyl)}-[Ala(1H-tetrazol-5-yl)]GT[αMePhe(2-F)]TSD[Bip(2'-Et-4'-O(CH2)4NH2)]([PEG24-Suc-DBCO])[Nva(5-(3,5-Me2Ph))]-NH2)",HEK293/CRE-LUC/hGLP1R S/N,human GLP1R; highest RLU / RLU of untreated wells,63.8
same,HEK293/CRE-LUC/hGLP1R Relative Potency (% P8 EC50),human GLP1R; [2],4.2%
same,HEK293/CRE-LUC/hGLP1R Relative Signal:Noise (% P8),human GLP1R; [2],97.1%
same,pEC50,HEK293/CRE-Luc cells,< 6.70
same,HEK293/CRE-LUC S/N,HEK293/CRE-Luc cells,1.7
"CCc1cc(OCCCCn2cc(COCCOCCOCCOCCNC(=O)OC[C@@H]3[C@@H]4CCc5[nH]nnc5CC[C@@H]43)nn2)ccc1-c1ccc(C[C@H](NC(=O)[C@H](CC(=O)O)NC(=O)[C@H](CO)NC(=O)[C@@H](NC(=O)[C@](C)(Cc2ccccc2F)NC(=O)[C@@H](NC(=O)CNC(=O)[C@H](Cc2nn[nH]n2)NC(=O)C(C)(C)C(=O)NCCc2cnc[nH]2)[C@@H](C)O)[C@@H](C)O)C(=O)N[C@@H](CCCc2cc(C)cc(C)c2)C(N)=O)cc1 [LP24, triazole-BCN-PEG4-triazole-P8]",Human plasma stability assay T½,[1]; [3],>404.7 h
"CCc1cc(OCCCCNC(=O)OCCOCCOCCOCCNC(=O)OC[C@@H]2[C@@H]3CCc4[nH]nnc4CC[C@@H]32)ccc1-c1ccc(C[C@H](NC(=O)[C@H](CC(=O)O)NC(=O)[C@H](CO)NC(=O)[C@@H](NC(=O)[C@](C)(Cc2ccccc2F)NC(=O)[C@@H](NC(=O)CNC(=O)[C@H](Cc2nn[nH]n2)NC(=O)C(C)(C)C(=O)NCCc2cnc[nH]2)[C@@H](C)O)[C@@H](C)O)C(=O)N[C@@H](CCCc2cc(C)cc(C)c2)C(N)=O)cc1 [LP25, triazole-BCN-PEG4-carbamate-P9] ({Malonyl(2,2-Me2,histaminyl)}-[Ala(1H-tetrazol-5-yl)]GT[αMePhe(2-F)]TSD[Bip(2'-Et-4'-O(CH2)4NH2)](X6)[Nva(5-(3,5-Me2Ph))]-NH2)",Human plasma stability assay T½,[1]; [3],284.8 h
"CCc1cc(OCCCCNC(=O)[C@H](CO)NC(=O)CNC(=O)CNC(=O)CNC(=O)CNC(=O)CCC(=O)N2Cc3ccccc3-c3nn[nH]c3-c3ccccc32)ccc1-c1ccc(C[C@H](NC(=O)[C@H](CC(=O)O)NC(=O)[C@H](CO)NC(=O)[C@@H](NC(=O)[C@](C)(Cc2ccccc2F)NC(=O)[C@@H](NC(=O)CNC(=O)[C@H](Cc2nn[nH]n2)NC(=O)C(C)(C)C(=O)NCCc2cnc[nH]2)[C@@H](C)O)[C@@H](C)O)C(=O)N[C@@H](CCCc2cc(C)cc(C)c2)C(N)=O)cc1 [LP26, triazole-DABAC- G4S-P9]",Human plasma stability assay T½,[1]; [3],>404.7 h
"CCc1cc(OCCCCn2cc(COCCOCCOCCOCCOCCOCCOCCOCCNC(=O)CCC(=O)N3Cc4ccccc4-c4nn[nH]c4-c4ccccc43)nn2)ccc1-c1ccc(C[C@H](NC(=O)[C@H](CC(=O)O)NC(=O)[C@H](CO)NC(=O)[C@@H](NC(=O)[C@](C)(Cc2ccccc2F)NC(=O)[C@@H](NC(=O)CNC(=O)[C@H](Cc2nn[nH]n2)NC(=O)C(C)(C)C(=O)NCCc2cnc[nH]2)[C@@H](C)O)[C@@H](C)O)C(=O)N[C@@H](CCCc2cc(C)cc(C)c2)C(N)=O)cc1 [LP28, triazole-DIBAC-suc-PEG8-triazole-P8]",half-life,"[1]; human plasma, tested for 3 days (C), read-out: Human plasma stability assay T½",> 173 h
"CCc1cc(OCCCCn2cc(COCCOCCOCCOCCOCCOCCOCCOCCN)nn2)ccc1-c1ccc(C[C@H](NC(=O)[C@H](CC(=O)O)NC(=O)[C@H](CO)NC(=O)[C@@H](NC(=O)[C@](C)(Cc2ccccc2F)NC(=O)[C@@H](NC(=O)CNC(=O)[C@H](Cc2nn[nH]n2)NC(=O)C(C)(C)NC(=O)[C@@H](N)Cc2ccc(O)cc2)[C@@H](C)O)[C@@H](C)O)C(=O)N[C@@H](CCCc2cc(C)cc(C)c2)C(N)=O)cc1 [LP29, NH2-PEG8-triazole-P19]",Human plasma stability assay T½,[1]; [4],>173.4 h
"CCc1cc(OCCCCn2cc(COCCOCCOCCOCCOCCOCCOCCOCCC(=O)N[C@@H](CC(C)C)C(=O)N3CCC[C@@H]3C(=O)N[C@@H](CCC(=O)O)C(=O)N[C@H](C(=O)NCC(=O)NCC(=O)O)[C@@H](C)O)nn2)ccc1-c1ccc(C[C@H](NC(=O)[C@H](CC(=O)O)NC(=O)[C@H](CO)NC(=O)[C@@H](NC(=O)[C@](C)(Cc2ccccc2F)NC(=O)[C@@H](NC(=O)CNC(=O)[C@H](Cc2nn[nH]n2)NC(=O)C(C)(C)C(=O)NCCc2cnc[nH]2)[C@@H](C)O)[C@@H](C)O)C(=O)N[C@@H](CCCc2cc(C)cc(C)c2)C(N)=O)cc1 [LP34, GGTEPL-PEG8- triazole-P8]",Human plasma stability assay T½,[1]; [4],>173.4 h
CCc1cc(OCCCCN)ccc1-c1ccc(C[C@H](NC(=O)[C@H](CC(=O)O)NC(=O)[C@H](CO)NC(=O)[C@@H](NC(=O)[C@](C)(Cc2ccccc2F)NC(=O)[C@@H](NC(=O)CNC(=O)[C@@H](N)Cc2nn[nH]n2)[C@@H](C)O)[C@@H](C)O)C(=O)N[C@@H](CCCc2cc(C)cc(C)c2)C(N)=O)cc1 [P2],Human plasma stability assay T½,"[1]; human plasma, tested for 2 hrs (B)",10.74 h
same,half-life at 2 µM,[1],10.7 h
"CCc1cc(OCCCCN)ccc1-c1ccc(C[C@H](NC(=O)[C@H](CC(=O)O)NC(=O)[C@H](CO)NC(=O)[C@@H](NC(=O)[C@](C)(Cc2ccccc2F)NC(=O)[C@@H](NC(=O)CNC(=O)[C@H](Cc2nn[nH]n2)NC(=O)C(C)(C)NC(=O)[C@@H](N)Cc2ccc(O)cc2)[C@@H](C)O)[C@@H](C)O)C(=O)N[C@@H](CCCc2cc(C)cc(C)c2)C(N)=O)cc1 [P19] (H-Y[Aib][Ala(1H-tetrazol-5-yl)]GT[αMePhe(2-F)]TSD[Bip(2'-Et,4'-O(CH2)4NH2)][Nva(5-(3,5-Me2Ph))]-NH2)",Human plasma stability assay T½,[1]; [5],>57.81 h
same,half-life at 2 µM,[1],> 57.8 h
"CCc1cc(OCCCCN=[N+]=[N-])ccc1-c1ccc(C[C@H](NC(=O)[C@H](CC(=O)O)NC(=O)[C@H](CO)NC(=O)[C@@H](NC(=O)[C@](C)(Cc2ccccc2F)NC(=O)[C@@H](NC(=O)CNC(=O)[C@H](Cc2nn[nH]n2)NC(=O)C(C)(C)C(=O)NCCc2cnc[nH]2)[C@@H](C)O)[C@@H](C)O)C(=O)N[C@@H](CCCc2cc(C)cc(C)c2)C(=O)O)cc1 [P41] ({Malonyl(2,2-Me2,histaminyl)}-[Ala(1H-tetrazol-5-yl)]GT[αMePhe(2-F)]TSD[Bip(2'-Et,4'-O(CH2)4N3)][Nva(5-(3,5-Me2Ph))]-OH)",Human plasma stability assay T½,[1]; [5],>57.81 h

# Reference: US20250161476A1 (REGENERON PHARMACEUTICALS, INC., priority 2020, published 2025)
